Laboratory results reported in ChEMBL document CHEMBL1147369, “Novel Diterpenoids from Taxus chinensis” (J Nat Prod, 1993).

Experiment: Inhibition of tubulin microtubule disassembly

Row | SMILES | ID50
1 | CC(=O)O[C@H]1C(=O)[C@@]2(C)[C@H]([C@H](OC(=O)c3ccccc3)[C@]3(O)C[C@H](OC(=O)[C@H](O)[C@@H](NC(=O)c4ccccc4)c4ccccc4)C(C)=C1C3(C)C)[C@]1(OC(C)=O)CO[C@@H]1C[C@@H]2O | 0.29 µM
2 | CC(=O)O[C@H]1C(=O)[C@]2(CO)[C@H](O)C[C@H]3OC[C@@]3(OC(C)=O)[C@H]2[C@H](OC(=O)c2ccccc2)[C@]2(O)C[C@H](O)C(C)=C1C2(C)C | > 100 µM
3 | CC(=O)O[C@H]1C[C@]2(C(C)(C)O)C(=C1C)[C@@H](OC(=O)c1ccccc1)[C@H](OC(=O)c1ccccc1)[C@]1(C)[C@@H](OC(C)=O)C[C@H]3OC[C@@]3(OC(C)=O)[C@H]1[C@@H]2OC(=O)c1ccccc1 | > 100 µM
4 | CC(=O)O[C@@]12CO[C@@H]1C[C@@H](O)[C@@]1(C)C(=O)C(=O)C3=C(C)[C@@H](O)C[C@@](O)([C@@H](OC(=O)c4ccccc4)[C@H]21)C3(C)C | > 100 µM

More lines, now with the values ahead:

Row | ID50 | SMILES
5 | > 100 µM | C=C1[C@@H](O)C[C@H](OC(C)=O)[C@@]2(C)[C@@H](OC(C)=O)[C@H](OC(=O)c3ccccc3)C3=C(C)[C@@H](O)C[C@@]3(C(C)(C)O)[C@@H](OC(C)=O)[C@H]12
6 | > 100 µM | CC(=O)O[C@H]1C[C@H]2OC[C@@]2(OC(C)=O)[C@H]2[C@H](OC(C)=O)[C@]3(C(C)(C)O)C[C@H](OC(=O)/C=C/c4ccccc4)C(C)=C3[C@@H](OC(=O)c3ccccc3)[C@H](OC(C)=O)[C@]12C
